Experimental data reported in patent US20260284208A1, “SYSTEM” (Oxford University Innovation Limited, priority 2023, published 2026).

Key:
Format in all cases: cell-based
[1] = target: AEVK-GFP in transduced Jurkat cells (Homo sapiens, UniProt Q96SW2+Q9UKT9, N149E/Q147A/Q150V/S154K); assay: Immunoblotting of AEVK ZF-eGFP; conditions: 10 μM; Jurkats transduced with AEVK-GFP
Procedure: Jurkat cells were added to T25 flasks (Falcon) at 2×10^6 cells per flask and were incubated with compounds for 18 hours at 37° C. and 5% CO2. Cells were lysed in buffer containing 9 M urea (Sigma), 75 mM Tris-HCl (Sigma), 0.15 M β-mercaptoethanol (Merck) and 10× diluted protease inhibitor cocktail (Merck). Cells lysates were sonicated for 10 seconds 3 times, centrifuged at 13000 rpm for 10 minutes at 4° C. and the supernatants were transferred into fresh tubes. Protein concentrations were measured using a Pierce BCA Protein Assay Kit (Thermo). Proteins were boiled in Laemmli sample buffer (Bio-Rad) for 5 minutes at 100° C. and separated by SDS-PAGE (7.5% Mini-PROTEAN TGX gels, Bio-Rad) and compared to the PageRuler Prestained Protein Ladder (Thermo). Semi-dry blotting was done on a Trans-Blot Turbo Transfer System (Bio-Rad) with the Trans-Blot Turbo RTA Mini 0.2 μm PVDF Transfer Kit (Bio-Rad) using the default mixed molecular weight mode. […] Membranes were scanned with a Bio-Rad ChemiDoc XRS+ Imaging System (Bio-Rad) and signal intensities were quantified using Image Lab software (Bio Rad). Band densitometry was assessed, normalized to vinculin bands, and reported as percentage of the DMSO control lane.

[2] = target: IKZF3 130-189aa Q147A N149E Q150V S154K (AEVK) ZF-GFP (Homo sapiens, UniProt Q96SW2+Q9UKT9, N149E/Q147A/Q150V/S154K); assay: GFP degradation flow cytometry assay, AEVK mutant ZF-eGFP
Chain of IKZF3 130-189aa Q147A N149E Q150V S154K (AEVK) ZF-GFP (Q9UKT9 130-189 Q147A/N149E/Q150V/S154K): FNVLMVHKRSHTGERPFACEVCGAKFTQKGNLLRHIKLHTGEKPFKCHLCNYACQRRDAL
Chain of IKZF3 130-189aa Q147A N149E Q150V S154K (AEVK) ZF-GFP (Q96SW2 whole entry): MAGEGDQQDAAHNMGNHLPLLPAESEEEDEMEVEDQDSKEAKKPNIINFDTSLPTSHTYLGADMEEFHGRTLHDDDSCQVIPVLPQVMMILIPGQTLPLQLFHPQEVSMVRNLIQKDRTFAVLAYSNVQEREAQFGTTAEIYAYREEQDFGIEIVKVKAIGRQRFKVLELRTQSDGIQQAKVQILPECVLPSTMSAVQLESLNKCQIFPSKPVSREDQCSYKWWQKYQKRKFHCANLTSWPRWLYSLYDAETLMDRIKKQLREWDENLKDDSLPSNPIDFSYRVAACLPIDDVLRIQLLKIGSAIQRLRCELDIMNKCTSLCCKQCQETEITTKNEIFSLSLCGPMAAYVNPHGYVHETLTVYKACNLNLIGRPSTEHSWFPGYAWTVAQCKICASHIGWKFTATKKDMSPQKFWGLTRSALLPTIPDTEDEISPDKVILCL
Procedure: (§1) The following method was used to generate lentiviral vectors for plasmids tested in library hit confirmation experiments: WT, QPIS, ANQS, APIS, HEIP, FEVP, WEIK, FDIP, AEVK, WNQS, WEIS, WNIQ, and WDIA. HEK293T cells were seeded into 6 well TC-treated cell culture dishes (Falcon) at 7×10^5 cells per well and incubated overnight at 37° C. and 5% CO2. […] In a separate tube 2 μL of PEIPro (Polyplus) was added to 100 μL of OptiMEM. The solution containing PEIPro and DNA was mixed and incubated at room temperature for 15 minutes to create the transfection mixture. The transfection mixture was added to cells and incubated for 5-6 hours at 37° C. and 5% CO2. After 2 days, the supernatant was harvested and fresh media was added to cells. 24 hours later, the supernatant was harvested and combined with the first supernatant harvested. Supernatant was centrifuged at 2000×g room temperature for 5 minutes, then the supernatant was filtered through a 0.45 μm cellulose acetate syringe filter and frozen at −80° C. […]
(§2) Jurkat cells were added to 96 well U-bottom assay plates (Falcon) at 1×10^5 cells per well and treated with compounds for 18 hours at 37° C. and 5% CO2. […] Data was analysed using FlowJo 10.8.1 (BD).
(§3) Having assessed the broad trends from this library screen, the sequences with the highest log FC values for A63 and B08 were selected and transduced into separate Jurkat cell lines. […]

[3] = target: IKZF3 130-189aa Q147W N149E Q150I (WEIS) ZF-GFP (Homo sapiens, UniProt Q96SW2+Q9UKT9, N149E/Q147W/Q150I); assay: GFP degradation flow cytometry assay, WEIS mutant ZF-eGFP
Chain of IKZF3 130-189aa Q147W N149E Q150I (WEIS) ZF-GFP (Q9UKT9 130-189 Q147W/N149E/Q150I): as the sequence (Q9UKT9 130-189 Q147A/N149E/Q150V/S154K) above, with A18W, V21I, K25S counted along it
Chain of IKZF3 130-189aa Q147W N149E Q150I (WEIS) ZF-GFP (Q96SW2 whole entry): as the sequence (Q96SW2 whole entry) above
Procedure: as §1, §2, §3

[4] = from pDC50 values, 12 concentrations 5 nM-10 μM

Chain of AEVK-GFP in transduced Jurkat cells (Q9UKT9 130-189 Q147A/N149E/Q150V/S154K): as the sequence (Q9UKT9 130-189 Q147A/N149E/Q150V/S154K) above
Chain of AEVK-GFP in transduced Jurkat cells (Q96SW2 whole entry): as the sequence (Q96SW2 whole entry) above

SMILES | degradation of AEVK-GFP (Western blot) [1] | percent degradation of ZF-GFP reporter at up to 10 µM ([2]; 18 h, 10 μM, Jurkat, flow cytometry concentration curve, read-out: degradation of the top mutant ZF-GFP (AEVK)) [%] | selectivity compared to the WT ZF (AEVK) [2, 4] | inhibition at up to 10 µM ([3]; 18 h, 10 μM, Jurkat, flow cytometry concentration curve, read-out: degradation of the top mutant ZF-GFP (WEIS)) [%] | selectivity compared to the WT ZF (WEIS) [3, 4]
CC(C)(C)c1ccc2c(c1)C(=O)N(C1CCC(=O)NC1=O)C2=O (centres unmarked) [A63, 5-(tert-butyl)-2-(2,6-dioxopiperidin-3-yl)isoindoline-1,3-dione] | full degradation | ~100 | around 30 × |  | 
CN1CCN(c2ccc3c(c2)C(=O)N(C2CCC(=O)NC2=O)C3=O)CC1 (centres unmarked) [B08, 2-(2,6-dioxopiperidin-3-yl)-5-(4-methylpiperazin-1-yl)isoindoline-1,3-dione] |  |  |  | ~100 | around 30 ×
